The record followed here is US11117883B2 (Ariad Pharmaceuticals, Inc., priority 2016, dated 2021).

Bounds are passed on as bounds.

What all share (assay): c-Kit assay: Ba/F3 KIT mutant viability (Cell Titer-Glo, 72 hours)
Common to all, as to format: cell-based

Test [1] has as its target T1, BAF3 FL KIT EX11DEL/D816H (Homo sapiens, UniProt P10721, D816H, cells depend on it, form not given).
T1 construct: "BAF3 FL KIT EX11DEL/ D816H"
The note with it: viability after 72 hours. How it is done:
(§1) KIT cDNAs were synthesized by GenScript and cloned into the pLVX-IRES-Puro vector (Clontech). Viral particles were produced by transfecting pLVX-IRES-puro vectors containing KIT mutant genes into HEK293 cells (Invitrogen) using the Trans-Lentiviral ORF Packaging Kit (Thermo Scientific). 48 hours post-transfection, virus-containing supernatants were harvested and incubated for another 48-72 hours with parental Ba/F3 cells (DSMZ) in the presence of 10 ng/mL […] (R&D Systems). Transduced Ba/F3 cells were then selected by IL-3 withdrawal and puromycin (0.5-1 μg/mL, Invitrogen).
(§2) Cell lines (i.e., EX11DEL, EX11DEL/D816H, EX11DEL/T670I, and EX11DEL/V654A) were plated into 384 well plates using RPMI 1640 supplemented with 10% FBS at densities that produced linear growth and incubated at 37° C. in 5% (v/v) CO2. Cells were treated with eight concentrations of compound over a 4-fold dilution (10 μM to 0.61 nM) and viability was assessed using Cell Titer-Glo assay (Promega) after 72 hours. Data were plotted as percent viability relative to vehicle-treated cells. Dose-responses curves were generated and used to calculate IC50 values.

For test [2], the target named is T2, BAF3 FL KIT EX11DEL (Homo sapiens, UniProt P10721, cells depend on it, form not given).
T2 construct: "BAF3 FL KIT EX11DEL"
The settings on record: viability after 72 hours. As for the experimental part:
as §1, §2

The target in test [3] is T3, BAF3 FL KIT EX11DEL/V654A (Homo sapiens, UniProt P10721, V654A, cells depend on it, form not given).
T3 construct: "BAF3 FL KIT EX11DEL/ V654A"
The note with it: viability after 72 hours. How it is done:
as §1, §2

For test [4], the target named is T4, BAF3 FL KIT EX11DEL/T6701 (Homo sapiens, UniProt P10721, T670I, cells depend on it, form not given).
T4 construct: "BAF3 FL KIT EX11DEL/ T6701"
The note with it: EX11DEL/T6701, viability after 72 hours. How it is done:
as §1, §2

T4 sequence (P10721 with tags, fused parts or gaps DEL557-558/T670I, form open): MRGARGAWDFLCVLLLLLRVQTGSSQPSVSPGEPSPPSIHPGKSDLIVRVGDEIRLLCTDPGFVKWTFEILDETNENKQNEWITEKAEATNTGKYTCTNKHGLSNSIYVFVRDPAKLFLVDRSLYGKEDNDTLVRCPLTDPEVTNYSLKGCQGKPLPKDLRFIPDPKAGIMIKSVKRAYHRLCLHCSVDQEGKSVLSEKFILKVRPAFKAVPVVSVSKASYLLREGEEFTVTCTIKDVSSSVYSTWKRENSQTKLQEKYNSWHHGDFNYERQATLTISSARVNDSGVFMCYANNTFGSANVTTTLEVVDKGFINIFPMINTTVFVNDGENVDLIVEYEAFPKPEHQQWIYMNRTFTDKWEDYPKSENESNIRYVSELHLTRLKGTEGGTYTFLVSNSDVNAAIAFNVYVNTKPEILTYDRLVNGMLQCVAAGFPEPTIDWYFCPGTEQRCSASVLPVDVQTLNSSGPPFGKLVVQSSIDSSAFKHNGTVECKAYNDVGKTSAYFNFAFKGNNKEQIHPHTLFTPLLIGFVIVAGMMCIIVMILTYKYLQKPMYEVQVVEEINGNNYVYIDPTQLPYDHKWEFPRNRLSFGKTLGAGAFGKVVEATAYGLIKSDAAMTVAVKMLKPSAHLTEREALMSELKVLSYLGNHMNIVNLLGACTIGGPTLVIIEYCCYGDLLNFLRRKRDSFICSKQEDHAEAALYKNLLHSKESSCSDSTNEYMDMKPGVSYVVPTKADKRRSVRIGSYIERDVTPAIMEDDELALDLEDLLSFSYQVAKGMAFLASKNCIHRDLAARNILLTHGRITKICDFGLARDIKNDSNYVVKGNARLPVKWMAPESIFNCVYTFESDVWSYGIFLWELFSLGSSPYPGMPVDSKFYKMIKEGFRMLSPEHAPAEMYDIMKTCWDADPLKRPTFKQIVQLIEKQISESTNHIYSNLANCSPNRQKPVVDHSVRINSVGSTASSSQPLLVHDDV
T2 sequence (P10721 with tags, fused parts or gaps DEL557-558): as the sequence (P10721 with tags, fused parts or gaps DEL557-558/T670I, form open) above, with I668T counted along it
T3 sequence (P10721 with tags, fused parts or gaps DEL557-558/V654A, form open): as the sequence (P10721 with tags, fused parts or gaps DEL557-558/T670I, form open) above, with V652A, I668T counted along it
T1 sequence (P10721 with tags, fused parts or gaps DEL557-558/D816H, form open): as the sequence (P10721 with tags, fused parts or gaps DEL557-558/T670I, form open) above, with I668T, D814H counted along it

The term GI50 denotes the concentration giving 50% growth inhibition. High values mean lower sensitivity of the cells, low ones greater sensitivity of the cells. In the case of `Cc1ccc(C(=O)Nc2cc(C(F)(F)F)ccn2)cc1C#Cc1ccc2c(c1)ncn2-c1cn(C)cn1` [Compound I-23, 4-methyl-3-((1-(1-methyl-1H-imidazol-4-yl)-1H-benzo[d]imidazol-5-yl)ethynyl)-N-(4-(trifluoromethyl)pyridin-2-yl)benzamide], the GI50 in test [1] was 0.01 to 0.05 µM; in test [2], < 0.01 µM; in test [3], 0.01 to 0.05 µM; in test [4], < 0.01 µM.
In the case of `Cc1ccc(C(=O)Nc2cc(C(F)(F)F)ccn2)cc1C#Cc1ccc2c(c1)ncn2-c1cn(C)nn1` [Compound I-24, 4-methyl-3-((1-(1-methyl-1H-1,2,3-triazol-4-yl)-1H-benzo[d]imidazol-5-yl)ethynyl)-N-(4-(trifluoromethyl)pyridin-2-yl)benzamide], the concentration for 50% growth inhibition (GI50) in test [1] is 0.01 to 0.05 µM; in test [2], < 0.01 µM; in test [3], 0.01 to 0.05 µM; in test [4], < 0.01 µM.
On to `Cc1ccc(C(=O)Nc2cc(C(F)(F)F)ccn2)cc1C#Cc1ccc2c(c1)ncn2-c1cnn(C2CCN(C=O)CC2)c1` [Compound I-25, 3-((1-(1-(1-formylpiperidin-4-yl)-1H-pyrazol-4-yl)-1H-benzo[d]imidazol-5-yl)ethynyl)-4-methyl-N-(4-(trifluoromethyl)pyridin-2-yl)benzamide], for which the GI50 is 0.01 to 0.05 µM in test [1], < 0.01 µM in test [2], 0.01 to 0.05 µM in test [3] and < 0.01 µM in test [4].
Turning to `Cc1ccc(C(=O)Nc2cc(C(F)(F)F)ccn2)cc1C#Cc1ccc2c(c1)ncn2-c1cnn(C2CCNCC2)c1` [Compound I-26, 4-methyl-3-((1-(1-(piperidin-4-yl)-1H-pyrazol-4-yl)-1H-benzo[d]imidazol-5-yl)ethynyl)-N-(4-(trifluoromethyl)pyridin-2-yl)benzamide], the GI50 was 0.01 to 0.05 µM in test [1], < 0.01 µM in test [2], 0.01 to 0.05 µM in test [3] and 0.01 to 0.05 µM in test [4].
Take `Cc1ccc(C(=O)Nc2cc(C(F)(F)F)ccn2)cc1C#Cc1ccc2c(c1)ncn2-c1cnn(C2CCN(C)CC2)c1` [Compound I-27, 4-methyl-3-((1-(1-(1-methylpiperidin-4-yl)-1H-pyrazol-4-yl)-1H-benzo[d]imidazol-5-yl)ethynyl)-N-(4-(trifluoromethyl)pyridin-2-yl)benzamide]: the 50% growth inhibitory concentration (GI50) in test [1] is 0.01 to 0.05 µM; in test [2], < 0.01 µM; in test [3] it was 0.01 to 0.05 µM; in test [4], 0.01 to 0.05 µM.
For the compound `Cc1ccc(C(=O)Nc2cccc(C3CC3)c2)cc1C#Cc1ccc2c(c1)ncn2-c1cnn(C)c1` [Compound I-28, N-(3-cyclopropylphenyl)-4-methyl-3-((1-(1-methyl-1H-pyrazol-4-yl)-1H-benzo[d]imidazol-5-yl)ethynyl)benzamide], the GI50 in test [1] lay in the range of 0.05 to 0.1 µM; in test [2], 0.01 to 0.05 µM; in test [3], 0.05 to 0.1 µM; in test [4], 0.01 to 0.05 µM.
Turning to `Cc1ccc(C(=O)Nc2ccc(CN3CCCC3)c(C(F)(F)F)c2)cc1C#Cc1ccc2c(c1)ncn2-c1cnn(C)c1` [Compound I-29, 4-methyl-3-((1-(1-methyl-1H-pyrazol-4-yl)-1H-benzo[d]imidazol-5-yl)ethynyl)-N-(4-(pyrrolidin-1-ylmethyl)-3-(trifluoromethyl)phenyl)benzamide], the GI50 was 0.01 to 0.05 µM in test [1], 0.01 to 0.05 µM in test [2], 0.05 to 0.1 µM in test [3] and 0.01 to 0.05 µM in test [4].
On to `Cc1ccc(C(=O)Nc2ccc(CN3CCCC3)c(C(F)(F)F)c2)cc1C#Cc1ccc2c(c1)ncn2C` [Compound I-30, 4-methyl-3-((1-methyl-1H-benzo[d]imidazol-5-yl)ethynyl)-N-(4-(pyrrolidin-1-ylmethyl)-3-(trifluoromethyl)phenyl)benzamide], for which the concentration for 50% growth inhibition (GI50) in test [1] fell in the range of 0.1 to 10 µM; in test [2], 0.01 to 0.05 µM; in test [3] it was 0.05 to 0.1 µM; in test [4], 0.05 to 0.1 µM.
In the case of `Cc1ccc(C(=O)Nc2cc(C(F)(F)F)ccn2)cc1C#Cc1ccc2c(c1)ncn2-c1cnn(CCO)c1` [Compound I-31, 3-((1-(1-(2-hydroxyethyl)-1H-pyrazol-4-yl)-1H-benzo[d]imidazol-5-yl)ethynyl)-4-methyl-N-(4-(trifluoromethyl)pyridin-2-yl)benzamide], the GI50 in test [1] is 0.01 to 0.05 µM; in test [2] it was < 0.01 µM; in test [3] it was 0.01 to 0.05 µM; in test [4] it was < 0.01 µM.
As to `COCCn1cc(-n2cnc3cc(C#Cc4cc(C(=O)Nc5cc(C(F)(F)F)ccn5)ccc4C)ccc32)cn1` [Compound I-32, 3-((1-(1-(2-methoxyethyl)-1H-pyrazol-4-yl)-1H-benzo[d]imidazol-5-yl)ethynyl)-4-methyl-N-(4-(trifluoromethyl)pyridin-2-yl)benzamide], the GI50 is 0.01 to 0.05 µM in test [1], < 0.01 µM in test [2], 0.01 to 0.05 µM in test [3] and < 0.01 µM in test [4].
In the case of `Cc1ccc(C(=O)Nc2cc(C(F)(F)F)ccn2)cc1C#Cc1ccc2c(c1)ncn2-c1cnn(C2CCOCC2)c1` [Compound I-33, 4-methyl-3-((1-(1-(tetrahydro-2H-pyran-4-yl)-1H-pyrazol-4-yl)-1H-benzo[d]imidazol-5-yl)ethynyl)-N-(4-(trifluoromethyl)pyridin-2-yl)benzamide], the GI50 is 0.01 to 0.05 µM in test [1], < 0.01 µM in test [2], 0.01 to 0.05 µM in test [3] and < 0.01 µM in test [4].
As for `Cc1ccc(C(=O)Nc2cc(C(F)(F)F)ccn2)cc1C#Cc1ccc2c(c1)ncn2-c1cn(C2CCN(C)CC2)cn1` [Compound I-34, 4-methyl-3-((1-(1-(1-methylpiperidin-4-yl)-1H-imidazol-4-yl)-1H-benzo[d]imidazol-5-yl)ethynyl)-N-(4-(trifluoromethyl)pyridin-2-yl)benzamide], the GI50 in test [1] is 0.1 to 10 µM; in test [2], < 0.01 µM; in test [3], 0.1 to 10 µM; in test [4] it was 0.01 to 0.05 µM.
As for `Cc1ccc(C(=O)Nc2cc(C(F)(F)F)ccn2)cc1C#Cc1ccc2c(c1)ncn2-c1cn[nH]c1` [Compound I-35, 3-((1-(1H-pyrazol-4-yl)-1H-benzo[d]imidazol-5-yl)ethynyl)-4-methyl-N-(4-(trifluoromethyl)pyridin-2-yl)benzamide], the concentration for 50% growth inhibition (GI50) was 0.01 to 0.05 µM in test [1], < 0.01 µM in test [2], 0.01 to 0.05 µM in test [3] and 0.01 to 0.05 µM in test [4].
For the compound `Cc1ccc(NC(=O)c2cc(C(F)(F)F)ccn2)cc1C#Cc1ccc2c(c1)ncn2-c1cn(C)nn1` [Compound I-36, N-(4-methyl-3-((1-(1-methyl-1H-1,2,3-triazol-4-yl)-1H-benzo[d]imidazol-5-yl)ethynyl)phenyl)-4-(trifluoromethyl)picolinamide], the GI50 is 0.01 to 0.05 µM in test [1], < 0.01 µM in test [2], 0.01 to 0.05 µM in test [3] and 0.01 to 0.05 µM in test [4].
In the case of `Cc1ccc(C(=O)Nc2ccc(C#N)c(C(F)(F)F)c2)cc1C#Cc1ccc2c(c1)ncn2-c1ccn(C)n1` [Compound I-37, N-(4-cyano-3-(trifluoromethyl)phenyl)-4-methyl-3-((1-(1-methyl-1H-pyrazol-3-yl)-1H-benzo[d]imidazol-5-yl)ethynyl)benzamide], the GI50 is 0.01 to 0.05 µM in test [1], < 0.01 µM in test [2], 0.05 to 0.1 µM in test [3] and 0.01 to 0.05 µM in test [4].
With `COCCn1cc(-n2cnc3cc(C#Cc4cc(NC(=O)c5cc(C(F)(F)F)ccn5)ccc4C)ccc32)cn1` [Compound I-38, N-(3-((1-(1-(2-methoxyethyl)-1H-pyrazol-4-yl)-1H-benzo[d]imidazol-5-yl)ethynyl)-4-methylphenyl)-4-(trifluoromethyl)picolinamide], the GI50 is 0.05 to 0.1 µM in test [1], < 0.01 µM in test [2], 0.01 to 0.05 µM in test [3] and 0.01 to 0.05 µM in test [4].
With `Cc1ccc(NC(=O)c2cc(C(F)(F)F)ccn2)cc1C#Cc1ccc2c(c1)ncn2-c1cnn(CCO)c1` [Compound I-39, N-(3-((1-(1-(2-hydroxyethyl)-1H-pyrazol-4-yl)-1H-benzo[d]imidazol-5-yl)ethynyl)-4-methylphenyl)-4-(trifluoromethyl)picolinamide], the GI50 in test [1] was 0.01 to 0.05 µM; in test [2], < 0.01 µM; in test [3], 0.01 to 0.05 µM; in test [4], < 0.01 µM.
With `Cc1ccc(NC(=O)c2cc(C(F)(F)F)ccn2)cc1C#Cc1ccc2c(c1)ncn2-c1cnn(C2CCN(C)CC2)c1` [Compound I-40], the 50% growth inhibitory concentration (GI50) is 0.1 to 10 µM in test [1], < 0.01 µM in test [2], 0.1 to 10 µM in test [3] and 0.01 to 0.05 µM in test [4].
